This passage reports IC50 results from patent publication US7265130B2, “NPY Y5 antagonist” (Shionogi & Co., Ltd., priority 1999, dated 2007).

The structures appear in SMILES notation.

The target in assay [1] is T1, human NPY Y5 receptor (Homo sapiens, UniProt Q15761).
T1 construct: expressed in transfected cells
T1 sequence (Q15761 1-445): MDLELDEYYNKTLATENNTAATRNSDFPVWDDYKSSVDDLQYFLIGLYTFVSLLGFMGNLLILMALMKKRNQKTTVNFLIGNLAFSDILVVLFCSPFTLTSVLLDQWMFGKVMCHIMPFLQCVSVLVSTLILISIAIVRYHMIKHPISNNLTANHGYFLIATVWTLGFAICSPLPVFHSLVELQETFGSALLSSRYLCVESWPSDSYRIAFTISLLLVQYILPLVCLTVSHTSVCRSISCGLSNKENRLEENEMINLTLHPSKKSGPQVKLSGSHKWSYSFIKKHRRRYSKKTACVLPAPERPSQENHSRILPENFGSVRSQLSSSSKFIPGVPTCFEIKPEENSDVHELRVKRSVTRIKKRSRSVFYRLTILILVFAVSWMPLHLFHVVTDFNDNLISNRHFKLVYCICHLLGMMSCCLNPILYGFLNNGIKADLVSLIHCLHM
Kind of assay: Affinity for NPY Y5 receptor ([125I] peptide YY binding, CHO cell membranes). The following applies: inhibition of specific [125I] peptide YY binding, membranes of CHO cells expressing NPY Y5 receptor. The gist of the method:
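Membranes from CHO cells stably expressing human NPY Y5 receptor incubated with test compound and [125I] peptide YY (60 pM final) in HEPES-Hanks buffer with 0.1% BSA, pH 7.4, 25° C for 2 hours. Filter-bound radioactivity counted; non-specific binding with 200 nM peptide YY; IC50 against specific binding calculated.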

Assay [2] addresses T1, human NPY Y5 receptor. Put plainly: cAMP production inhibitory activity in CHO cells. The assay is classed as cell-based. The following applies: against 50 nM NPY inhibition of forskolin stimulated cAMP, CHO cells expressing human NPY Y5 receptor. An outline of the steps:
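CHO cells expressing human NPY Y5 receptor preincubated 20 min at 37 °C with 2.5 mM IBMX, then with compound for 5 min. Stimulated with 50 nM NPY plus 10 μM forskolin for 30 min. Reaction stopped with 1N HCl; supernatant cAMP measured by EIA.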

On to `C[C@@H]1CN(S(=O)(=O)c2cccc(NC(=O)C3CCC(NS(=O)(=O)C(C)(C)C)CC3)c2)C[C@H](C)O1` (stereo partly shown) [Ia-55], for which the IC50 worked out at 1.1 nM on human NPY Y5 receptor [1] and 27 nM on human NPY Y5 receptor [2].
Take `CC(C)(C)S(=O)(=O)NC1CCC(C(=O)Nc2ccc(OCC3CCCCO3)cc2)CC1` (stereo not shown) [Ia-206]: the IC50 at human NPY Y5 receptor [1] turned out to be 1.9 nM; against human NPY Y5 receptor [2], 460 nM.
Taken in the same sequence, the figures for `CC(C)(C)S(=O)(=O)NC1CCC(C(=O)Nc2ccc(-c3ccno3)cc2)CC1` (stereo not shown) [Ia-179] were 0.89 nM and 19 nM.
In the same order, the values of `CC(C)(C)S(=O)(=O)NC1CCC(C(=O)Nc2cccc(S(=O)(=O)N3CCCCC3)c2)CC1` (stereo not shown) [Ia-186] are 0.93 nM and 12 nM.
Regarding `C[C@@H]1CN(c2cccc(NC(=O)C3CCC(NS(=O)(=O)C(C)(C)C)CC3)c2)C[C@H](C)O1` (stereo partly shown) [Ia-4], the IC50 on human NPY Y5 receptor [1] turned out to be 1.4 nM; against human NPY Y5 receptor [2], 15 nM.
Taken in the same sequence, the figures for `CSc1ccc(NC(=O)C2CCC(NS(=O)(=O)C(C)(C)C)CC2)cc1` (stereo not shown) [Compound I-128] were 1.3 nM and 10.2 nM.
In the same order, the values of `CC(C)(C)S(=O)(=O)NC1CCC(C(=O)Nc2cccc(NC(=O)C3CCCCC3)c2)CC1` (stereo not shown) [Ia-189] are 3.5 nM and 95 nM.
In the case of `CC(C)NC(=O)c1cccc(NC(=O)C2CCC(NS(=O)(=O)C(C)C)CC2)c1` (stereo not shown) [Ia-192], the IC50 came to 5.9 nM on human NPY Y5 receptor [1] and 200 nM against human NPY Y5 receptor [2].
Turning to `CC(C)(C)S(=O)(=O)Nc1ccc(C(=O)Nc2ccc3c(c2)OCCO3)cc1` [Ia-127], the IC50 on human NPY Y5 receptor [1] was found to be 6.1 nM; at human NPY Y5 receptor [2] it was 160 nM.
Taken in the same sequence, the figures for `CC(C)(C)S(=O)(=O)NC1CCC(C(=O)Nc2ccc(N3CC=CC3)cc2)CC1` (stereo not shown) [Ia-110] were 0.3 nM and 1.1 nM.
Regarding `CC(C)(C)S(=O)(=O)N[C@H]1CC[C@H](C(=O)Nc2ccc(-c3nnnn3-c3ccccc3)cc2)CC1` [Ia-71], the figures for the IC50 on human NPY Y5 receptor [1] and against human NPY Y5 receptor [2] were 1.3 nM and 12 nM, respectively.
As for `CC(C)(C)S(=O)(=O)NC1CCC(C(=O)Nc2ccc(N3CCC(=O)CC3)cc2)CC1` (stereo not shown) [Ia-52], the IC50 on human NPY Y5 receptor [1] turned out to be 1.9 nM; against human NPY Y5 receptor [2] it was 22 nM.
Consider `CC(C)S(=O)(=O)NC1CCN(C(=O)Nc2ccc(C(F)(F)F)cc2)CC1` [Ia-222], for which the IC50 on human NPY Y5 receptor [1] amounted to 3.7 nM; against human NPY Y5 receptor [2], 18 nM.
Taken in the same sequence, the figures for `CC(C)NS(=O)(=O)c1ccc(NC(=O)C2CCC(NS(=O)(=O)C(C)(C)C)CC2)cc1` (stereo not shown) [Ia-180] were 1.9 nM and 11 nM.
Consider `CC(=O)c1ccc(NC(=O)C2CCC(NS(=O)(=O)C(C)(C)C)CC2)cc1` (stereo not shown) [Compound I-127], for which the IC50 turned out to be 1.4 nM at human NPY Y5 receptor [1] and 30.4 nM on human NPY Y5 receptor [2].
In the same order, the values of `CC(C)(C)S(=O)(=O)NC1CCC(C(=O)Nc2cccc3c2Cc2ccccc2-3)CC1` (stereo not shown) [Ia-109] are 0.6 nM and 3.9 nM.
As to `CC(C)(C)S(=O)(=O)Nc1ccc(C(=O)Nc2ccc3c(c2)CCC3)cc1` [Ia-125], the IC50 on human NPY Y5 receptor [1] is 4.1 nM; against human NPY Y5 receptor [2], 46 nM.
In the same order, the values of `C[C@@H]1CN(c2ccc(NC(=O)CCCCNS(=O)(=O)C(C)(C)C)c(F)c2)C[C@H](C)O1` [Ia-83] are 1.2 nM and 53 nM.
Turning to `CC(C)(C)S(=O)(=O)NC1CCC(C(=O)Nc2ccc(S(=O)(=O)N3CCCCC3)cc2)CC1` (stereo not shown) [Ia-185], the IC50 on human NPY Y5 receptor [1] is 0.94 nM; against human NPY Y5 receptor [2], 4.4 nM.
Taken in the same sequence, the figures for `CC(C)(C)S(=O)(=O)NC1CCC(C(=O)Nc2ccc(Cc3ccncc3)cc2)CC1` (stereo not shown) [Compound I-206] were 5.9 nM and 54 nM.
As to `COCOc1cccc(NC(=O)C2CCC(NS(=O)(=O)C(C)(C)C)CC2)c1` (stereo not shown) [Compound I-162], the values for the IC50 at human NPY Y5 receptor [1] and at human NPY Y5 receptor [2] were 1.7 nM and 32 nM, respectively.
Taken in the same sequence, the figures for `CC(C)(C)S(=O)(=O)NC1CCC(C(=O)Nc2ccc3ncccc3c2)CC1` (stereo not shown) [Compound I-140] were 0.48 nM and 8.9 nM.
With `CCCCc1ccc(NC(=O)c2ccc(NS(=O)(=O)C(C)(C)Cl)cc2)cc1` [Compound I-106], the values for the IC50 on human NPY Y5 receptor [1] and at human NPY Y5 receptor [2] were 6.4 nM and 29 nM, respectively.
Taken in the same sequence, the figures for `CC(C)(C)S(=O)(=O)NC1CCC(C(=O)Nc2ccc3c(c2)CCC3=O)CC1` (stereo not shown) [Compound I-156] were 0.81 nM and 17 nM.
Taken in the same sequence, the figures for `CN1C(=O)c2ccc(NC(=O)CCCCNS(=O)(=O)C(C)(C)C)cc2C1=O` [Ia-91] were 4 nM and 150 nM.
In the same order, the values of `CC(C)(C)S(=O)(=O)NC1CCC(C(=O)Nc2ccc(F)c(F)c2)CC1` (stereo not shown) [Ia-138] are 2.2 nM and 28 nM.
